Here are results for 20 molecules from publication PMC6930660, “Synthesis and Comparative Structure–Activity Study of Carbohydrate-Based Phenolic Compounds as α-Glucosidase Inhibitors and Antioxidants” (Molecules, 2019).

Where “and” joins values, the source holds several entries; their conditions need not be identical. Equal values may be shown once. A value given as a limit tells only on which side of the number the result lay.

A short description of assay [1]: DPPH radical scavenging assay (antioxidant activity). To be noted: for EC50: MES-NaOH buffer pH 6.0, 15 min in the dark; for EC50 / Antioxidant Trolox-eq (TE): mean ± S.D. of n = 3; for Antioxidant Trolox-eq (TE): trolox-equivalent (mol-trolox/mol-sample) = slope of sample / slope of trolox. The protocol: The antioxidant activity was assessed by employing the 2,2-diphenyl-1-picrylhydrazyl (DPPH) radical scavenging assay, according to the previously published method. In total, 100 μL of each sample (1000–10 μg/mL in 50%EtOH/ H2O ) or trolox (160–0 μM in 50% EtOH/ H2O ), and 50 μL of 2-(N-morpholino)ethanesulfonic acid (MES)-NaOH buffer (200 mM, pH = 6.0), and 50 μL of an 800 μM DPPH diluted in 99.5% EtOH were mixed in 96-well plates. Following shaking the microplate for 15 min in the dark, the absorbance was recorded at 520 nm using a microplate reader (Bio-Rad, Model 680). Effective percentages (%) were calculated as follows: Effective percentages (%) = 1−As/Ab ×100 where As is the absorbance of the sample and Ab is the absorbance of the blank (without samples, 50% EtOH/ H2O solution was used instead).
The trolox-equivalent (sample-mol/trolox-mol) was calculated as follows: Trolox−equivalent (mol−trolox/mol−sample) = Ss/St where Ss is the slope of the sample and St is the slope of trolox.

Another assay addresses rat α-glucosidase. The assay is described as follows: α-glucosidase inhibitory activity assay (FUJIFILM kit, maltose substrate, glucose measured by mutarotase-GOD method). The class given is biochemical. As to conditions: for IC50: rat α-glucosidase, 18.5 mM maltose, maleic anhydride buffer pH 6.0, 37 °C, 30 min, mean ± S.D. of n = 2; for α-glucosidase inhibitory activity, fold higher than acertannin (37): relative to acertannin (37). The protocol: The α-glucosidase inhibitory activity of all samples was assayed utilizing a commercially available FUJIFILM α-glucosidase inhibitory activity assay kit. In total, 25 μL of each sample (25–2000 μg/mL in H2O ) or acarbose (0.5–8 μg/mL in H2O ), 50 μL of 18.5 mM maltose diluted in maleic anhydride buffer (100 mM, pH = 6.0), and 25 μL of the rat α-glucosidase solution were incubated in a micro-tube at 37 °C for 30 min. Subsequently, 400 μL of purified water was added to the solution and the reaction mixture was boiled for 3 min to deactivate α-glucosidase. The generated glucose was measured by LabAssay™ glucose (mutarotase-GOD method). In total, 100 μL of the reaction solution and 150 μL of the coloring solution were incubated in 96-well plates at 37 °C for 10 min, and the absorbance was recorded at 505 nm using a microplate reader (Bio-Rad, Model 680). The inhibition percentage was calculated using the following Equation: Inhibition percentage (%) = 1−As−Ab/Ac ×100 where As is the absorbance of the analyzed sample, Ab is the absorbance of the blank (immediate deactivation), and Ac is the absorbance of the control ([…]). Acarbose was used as the positive control.

“2,3,4,6-tetrakis-O-(3′,4′,5′-Trihydroxybenzoyl)-D-glucitol [Compound 54]”: in assay [1], the response was half-maximal at 6.61 ± 0.68 µM (EC50) and the “Antioxidant Trolox-eq (TE)” value stood at 6.77 ± 0.63. Besides, at rat α-glucosidase, the midpoint of inhibition, the IC50, lay at 2.56 ± 0.1 µM and the “α-glucosidase inhibitory activity, fold higher than acertannin (37)” value is “more than 13 fold”.
At rat α-glucosidase, `C[C@H]1O[C@H](O[C@H]2[C@H](O)[C@@H](O)[C@@H](O[C@H]3[C@H](O)[C@@H](O)C(O)O[C@@H]3CO)O[C@@H]2CO)[C@H](O)[C@@H](O)[C@@H]1N[C@H]1C=C(CO)[C@@H](O)[C@H](O)[C@H]1O` (some centres unmarked) [Acarbose, reference compound] had an IC50 of 0.11 ± 0.02 µM.
In the case of `O=C(O[C@H]1CO[C@H](CO)[C@@H](O)[C@@H]1O)c1cc(O)c(O)c(O)c1` [Compound 31, 1,5-Anhydro-2-O-(3′,4′,5′-trihydroxybenzoyl)-D-glucitol], in assay [1], it took 19.4 ± 1.02 µM to reach a half-maximal effect (EC50) and the “Antioxidant Trolox-eq (TE)” value is listed as 2.04 ± 0.08. Further, at rat α-glucosidase, the IC50 is 95.1 ± 0.22 µM.
For `O=C(O[C@H]1[C@H](O)[C@@H](CO)OC[C@@H]1O)c1cc(O)c(O)c(O)c1` [Compound 32, 1,5-Anhydro-3-O-(3′,4′,5′-trihydroxybenzoyl)-D-glucitol] the same measures were 20.5 ± 2.05 µM, 2.38 ± 0.24 and 138 ± 1.5 µM.
For `O=C(O[C@H]1[C@H](O)[C@@H](O)CO[C@@H]1CO)c1cc(O)c(O)c(O)c1` [Compound 33, 1,5-Anhydro-4-O-(3′,4′,5′-trihydroxybenzoyl)-D-glucitol] the same measures were 20.8 ± 1.54 µM, 2.09 ± 0.19 and 143.9 ± 0.52 µM.
Take `O=C(OC[C@H]1OC[C@H](O)[C@@H](O)[C@@H]1O)c1cc(O)c(O)c(O)c1` [Compound 34, 1,5-Anhydro-6-O-(3′,4′,5′-trihydroxybenzoyl)-D-glucitol]: in assay [1], the concentration giving a half-maximal response (EC50) is 22.9 ± 1.61 µM and the “Antioxidant Trolox-eq (TE)” value came out at 2.13 ± 0.12. It took 127.1 ± 0.88 µM to reach half-maximal inhibition at rat α-glucosidase (IC50).
`O=C(O[C@H]1[C@H](O)[C@@H](CO)OC[C@@H]1OC(=O)c1cc(O)c(O)c(O)c1)c1cc(O)c(O)c(O)c1` [Compound 35, 1,5-Anhydro-2,3-bis-O-(3′,4′,5′-trihydroxybenzoyl)-D-glucitol]: in assay [1], the EC50 worked out at 11.3 ± 0.98 µM and the “Antioxidant Trolox-eq (TE)” value turned out to be 4.29 ± 0.23. This molecule showed an IC50 on rat α-glucosidase of 20.5 ± 0.5 µM. For the same molecule, in the assay with rat α-glucosidase (relative to gallic acid), the “α-glucosidase inhibitory activity relative to gallic acid” value is “three-times higher”.
For `O=C(O[C@H]1[C@H](O)[C@@H](OC(=O)c2cc(O)c(O)c(O)c2)CO[C@@H]1CO)c1cc(O)c(O)c(O)c1` [Compound 36, 1,5-Anhydro-2,4-bis-O-(3′,4′,5′-trihydroxybenzoyl)-D-glucitol], in assay [1], the midpoint of the response, the EC50, lay at 14.3 ± 0.29 µM and the “Antioxidant Trolox-eq (TE)” value came to 3.36 ± 0.13. The IC50 against rat α-glucosidase came to 48.3 ± 1.25 µM.
For `O=C(OC[C@H]1OC[C@H](OC(=O)c2cc(O)c(O)c(O)c2)[C@@H](O)[C@@H]1O)c1cc(O)c(O)c(O)c1` [Compound 37, 1,5-Anhydro-2,6-bis-O-(3′,4′,5′-trihydroxybenzoyl)-D-glucitol] the same measures were 15.2 ± 0.53 µM, 3.32 ± 0.37 and 35.6 ± 2.58 µM.
For `O=C(O[C@H]1[C@H](OC(=O)c2cc(O)c(O)c(O)c2)[C@@H](CO)OC[C@@H]1O)c1cc(O)c(O)c(O)c1` [Compound 38, 1,5-Anhydro-3,4-bis-O-(3′,4′,5′-trihydroxybenzoyl)-D-glucitol] the same measures were 14.8 ± 0.56 µM, 3.55 ± 0.42 and 91.4 ± 6.56 µM.
For `O=C(OC[C@H]1OC[C@H](O)[C@@H](OC(=O)c2cc(O)c(O)c(O)c2)[C@@H]1O)c1cc(O)c(O)c(O)c1` [Compound 39, 1,5-Anhydro-3,6-bis-O-(3′,4′,5′-trihydroxybenzoyl)-D-glucitol] the same measures were 11.9 ± 0.71 µM, 3.67 ± 0.19 and 55 ± 8.84 µM.
On to `O=C(OC[C@H]1OC[C@H](O)[C@@H](O)[C@@H]1OC(=O)c1cc(O)c(O)c(O)c1)c1cc(O)c(O)c(O)c1` [Compound 40, 1,5-Anhydro-4,6-bis-O-(3′,4′,5′-trihydroxybenzoyl)-D-glucitol], for which, in assay [1], the midpoint of the response, the EC50, lay at 13 ± 1.12 µM and the “Antioxidant Trolox-eq (TE)” value is reported as 3.78 ± 0.33. In addition, the IC50 at rat α-glucosidase was 26.6 ± 2.37 µM.
Taken in the same sequence, the figures for `O=C(O[C@H]1[C@H](OC(=O)c2cc(O)c(O)c(O)c2)[C@@H](CO)OC[C@@H]1OC(=O)c1cc(O)c(O)c(O)c1)c1cc(O)c(O)c(O)c1` [Compound 41, 1,5-Anhydro-2,3,4-tris-O-(3′,4′,5′-trihydroxybenzoyl)-D-glucitol] were 7.94 ± 0.39 µM, 5.59 ± 0.26 and 6.72 ± 0.21 µM.
For `O=C(OC[C@H]1OC[C@H](OC(=O)c2cc(O)c(O)c(O)c2)[C@@H](OC(=O)c2cc(O)c(O)c(O)c2)[C@@H]1O)c1cc(O)c(O)c(O)c1` [Compound 42, 1,5-Anhydro-2,3,6-tris-O-(3′,4′,5′-trihydroxybenzoyl)-D-glucitol] the same measures were 8.09 ± 0.41 µM, 5.75 ± 0.18 and 5.34 ± 0.55 µM.
For `O=C(OC[C@H]1OC[C@H](OC(=O)c2cc(O)c(O)c(O)c2)[C@@H](O)[C@@H]1OC(=O)c1cc(O)c(O)c(O)c1)c1cc(O)c(O)c(O)c1` [Compound 43, 1,5-Anhydro-2,4,6-tris-O-(3′,4′,5′-trihydroxybenzoyl)-D-glucitol] the same measures were 10.3 ± 0.76 µM, 4.31 ± 0.35 and 9.34 ± 0.99 µM.
For `O=C(OC[C@H]1OC[C@H](O)[C@@H](OC(=O)c2cc(O)c(O)c(O)c2)[C@@H]1OC(=O)c1cc(O)c(O)c(O)c1)c1cc(O)c(O)c(O)c1` [Compound 44, 1,5-Anhydro-3,4,6-tris-O-(3′,4′,5′-trihydroxybenzoyl)-D-glucitol], in assay [1], the EC50 worked out at 8.48 ± 0.21 µM and the “Antioxidant Trolox-eq (TE)” value was 5.36 ± 0.20. At rat α-glucosidase, this molecule gave an IC50 of 12.6 ± 0.61 µM.
Turning to `O=C(OC[C@H]1OC[C@H](OC(=O)c2ccc(O)c(O)c2)[C@@H](OC(=O)c2ccc(O)c(O)c2)[C@@H]1OC(=O)c1ccc(O)c(O)c1)c1ccc(O)c(O)c1` [Compound 55, 1,5-Anhydro-2,3,4,6-tetrakis-O-(3′,4′-dihydroxybenzoyl)-D-glucitol], in assay [1], the EC50 was 6.99 ± 0.11 µM; the “Antioxidant Trolox-eq (TE)” value was 6.54 and 6.54 ± 0.15. At rat α-glucosidase, the IC50 is 3.28 ± 0.16 µM.
As to `O=C(OC[C@H]1OC[C@H](OC(=O)c2cc(O)cc(O)c2)[C@@H](OC(=O)c2cc(O)cc(O)c2)[C@@H]1OC(=O)c1cc(O)cc(O)c1)c1cc(O)cc(O)c1` [Compound 56, 1,5-Anhydro-2,3,4,6-tetrakis-O-(3,5-dihydroxybenzoyl)-D-glucitol], in assay [1], the “antioxidant activity (in words)” value is listed as “no antioxidant activity was observed” and the concentration giving a half-maximal response (EC50) was over 70 µM. Besides, at rat α-glucosidase, inhibition was half-maximal at 9.34 ± 0.02 µM (IC50).
For `O=C(OC[C@H]1OC(O)[C@H](OC(=O)c2cc(O)c(O)c(O)c2)[C@@H](OC(=O)c2cc(O)c(O)c(O)c2)[C@@H]1OC(=O)c1cc(O)c(O)c(O)c1)c1cc(O)c(O)c(O)c1` (stereo partly drawn) [Compound 61, 2,3,4,6-tetrakis-O-(3′,4′,5′-Trihydroxybenzoyl)-α,β-D-glucopyranose], in assay [1], the EC50 was determined as 5.6 ± 0.28 µM and the “Antioxidant Trolox-eq (TE)” value is recorded as 8.33 ± 0.49. In addition, at rat α-glucosidase, the IC50 was 1.68 ± 0.21 µM and the “α-glucosidase inhibitory activity, fold higher than acertannin (37)” value is on record as “more than 13 fold”.
In assay [1], `Cc1c(C)c2c(c(C)c1O)CCC(C)(C(=O)O)O2` (centres unmarked) [Trolox, reference compound] registered an EC50 of 49.4 ± 3.87 µM.
